Measured values reported in patent publication US8163909B2, “Substituted hydroxyethyl amine compounds as beta-secretase modulators and methods of use” (Amgen Inc., priority 2007, dated 2012).
Where two headings read alike, the source gives them in different places.

Experiments:
[1] = target: Beta Secretase enzyme (BACE) (Homo sapiens, UniProt P56817); assay: In vitro enzymatic BACE FRET (fluorescence resonance energy transfer) assay; type: biochemical;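 note: fluorescence read after 1 h with 50 nM quenched peptide substrate spanning the BACE cleavage site, in pH 4.2 acetate buffer containing 10% DMSO and nonionic detergent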
[2] = Microsomal stability assay, human liver microsomes;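 note: pooled human liver microsomes at 0.25 mg/mL with 1 µM compound and NADPH at 37 °C, pH 7.4, for 30 min, unchanged parent quantified by LC-MS/MS against the 0 min sample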
CYP2D6 = CYP2D6 (Homo sapiens, UniProt P10635); assay: CYP2D6 inhibition assay (bufuralol, pooled human liver microsomes)
[3] = Microsomal stability assay, rat liver microsomes;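 note: rat liver microsomes (0.25 mg/mL) with about 1 µM compound plus 1 mM NADPH, pH 7.4, 37 °C for 30 min, parent left measured by LC-MS/MS against 0 min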
[4] = test system: Aβ40 in conditioned medium of cells stably expressing Amyloid Precursor Protein (APP); assay: In vitro BACE cell-based assay (Aβ40 in conditioned medium, sandwich ELISA); details: Homo sapiens;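 note: compounds added as a dilution series, secreted peptide quantified by europium time-resolved fluorescence readout, potency fitted from percent of control versus compound concentration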
CYP3A4 (CYP3A) = CYP3A4 (CYP3A) (Homo sapiens, UniProt P08684); assay: in vitro; details: microsomes, pH 7.4;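 note: inhibition of CYP3A-mediated 1-hydroxymidazolam formation after 10 min incubation with NADPH, quantified by HPLC MS relative to metabolite produced without test compound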
[5] = BACE enzyme assay, IC50's in uM, read-out: BACE1 FRET assay
[6] = 2D6 IC50 (uM), CYP enzyme inhibition
[7] = HEK293, HEK cell-based assay, IC50's in uM, read-out: HEK cell assay
[8] = read-out: BACE1 FRET assay (IC50)
[9] = HEK293, HEK cells, read-out: HEK cell assay (IC50)
[10] = 2D6 IC50, CYP enzyme inhibition
[11] = HEK293, cell-based assay, HEK cells, IC50's in uM, read-out: HEK cell assay
[12] = BACE enzyme assay, read-out: BACE1 FRET assay
[13] = HEK293, HEK cells, read-out: HEK cell assay
[14] = BACE enzyme assay IC50, read-out: BACE1 FRET assay
[15] = 2D6 IC50 (uM), CYP2D6 inhibition
[16] = HEK293, HEK cell-based assay IC50, read-out: HEK cell assay
[17] = Table 2, read-out: BACE1 FRET assay
[18] = HEK293, Table 2, HEK cells, read-out: HEK cell assay

Beta Secretase enzyme (BACE), sequence (P56817 46-501): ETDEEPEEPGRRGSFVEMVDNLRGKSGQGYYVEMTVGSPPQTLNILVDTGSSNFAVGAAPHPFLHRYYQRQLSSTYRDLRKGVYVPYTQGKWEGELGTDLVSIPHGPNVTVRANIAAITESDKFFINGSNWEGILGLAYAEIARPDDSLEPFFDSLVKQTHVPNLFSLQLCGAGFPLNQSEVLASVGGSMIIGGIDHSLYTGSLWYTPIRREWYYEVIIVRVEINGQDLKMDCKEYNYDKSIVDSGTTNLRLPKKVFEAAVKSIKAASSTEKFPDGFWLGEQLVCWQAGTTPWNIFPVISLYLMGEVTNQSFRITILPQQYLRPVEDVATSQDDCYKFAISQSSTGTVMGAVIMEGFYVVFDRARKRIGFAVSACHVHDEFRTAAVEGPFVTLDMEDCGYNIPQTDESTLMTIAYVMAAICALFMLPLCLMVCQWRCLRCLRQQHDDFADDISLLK
CYP3A4 (CYP3A), sequence (P08684 2-503): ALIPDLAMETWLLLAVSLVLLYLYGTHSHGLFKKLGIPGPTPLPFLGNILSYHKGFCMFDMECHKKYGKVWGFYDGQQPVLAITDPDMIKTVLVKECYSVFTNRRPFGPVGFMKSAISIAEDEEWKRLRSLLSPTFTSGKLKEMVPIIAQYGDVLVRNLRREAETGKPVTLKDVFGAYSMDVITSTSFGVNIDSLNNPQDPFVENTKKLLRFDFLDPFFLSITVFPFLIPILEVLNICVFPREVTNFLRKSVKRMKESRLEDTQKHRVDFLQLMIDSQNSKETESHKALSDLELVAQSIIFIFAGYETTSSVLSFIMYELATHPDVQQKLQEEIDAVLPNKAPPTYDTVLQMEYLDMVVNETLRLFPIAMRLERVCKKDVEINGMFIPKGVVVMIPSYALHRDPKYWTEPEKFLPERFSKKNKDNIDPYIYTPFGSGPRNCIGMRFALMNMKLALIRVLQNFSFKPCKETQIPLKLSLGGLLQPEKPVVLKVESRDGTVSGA
CYP2D6, sequence (P10635 whole entry): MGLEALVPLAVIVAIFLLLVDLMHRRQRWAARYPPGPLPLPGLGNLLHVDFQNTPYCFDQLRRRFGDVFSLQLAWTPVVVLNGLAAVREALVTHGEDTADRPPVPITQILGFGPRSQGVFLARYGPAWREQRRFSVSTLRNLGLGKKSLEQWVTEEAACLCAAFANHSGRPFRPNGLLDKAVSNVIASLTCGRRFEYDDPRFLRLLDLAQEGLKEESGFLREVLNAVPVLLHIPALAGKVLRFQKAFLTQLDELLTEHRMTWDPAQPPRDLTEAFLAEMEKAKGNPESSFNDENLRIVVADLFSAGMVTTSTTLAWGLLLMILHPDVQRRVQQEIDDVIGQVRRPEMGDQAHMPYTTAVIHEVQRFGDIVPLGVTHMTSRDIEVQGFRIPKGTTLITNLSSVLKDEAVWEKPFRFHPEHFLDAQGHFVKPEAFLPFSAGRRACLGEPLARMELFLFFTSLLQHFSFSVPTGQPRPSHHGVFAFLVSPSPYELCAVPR

SMILES	IC50 [1, 5] [µM]	HLM ([2]; human liver microsomal data) [µL/min/mg]	IC50 (CYP2D6; [6]) [µM]	RLM ([3]; rat liver microsomal data) [µL/min/mg]	IC50 (CYP3A4 (CYP3A)) [nM]	HLM ([2]; human liver microsomes) [µL/min/mg]	RLM ([3]; rat liver microsomes) [µL/min/mg]	other results
C#Cc1cnc2c(c1)[C@@H](NC[C@@H](O)[C@H](Cc1cc(F)cc(-c3nccs3)c1)NC(=O)[C@@H](C)OC)CC1(CCC1)O2 [compound 784]	0.158	51	1	64	≤ 30	–	–	IC50 [4, 7]: 0.864 µM
CC(=O)N[C@@H](Cc1cc(F)cc(-c2cccnc2)c1)[C@H](O)CN[C@H]1CC2(CCC2)Oc2ccc(CC(C)(C)C)cc21 [compound 649]	–	–	–	–	300	706	482	IC50 [1, 8]: 0.007 µM; IC50 (CYP2D6; 2D6 IC50, CYP2D6 inhibition): 0.5 µM; IC50 [4, 9]: 0.03 µM
COCC(=O)N[C@@H](Cc1cc(Br)cc(-c2nccs2)c1)[C@H](O)CN[C@H]1CC2(CCC2)Oc2ncc(CC(C)(C)C)cc21 [compound 851]	0.013	71	–	59	200	–	–	IC50 (CYP2D6; [10]): 0.7 µM; IC50 [4, 11]: 0.057 µM
CC(=O)N[C@@H](Cc1cc(F)cc(F)c1)[C@H](O)CN[C@H]1CC2(CCC2)Oc2c1cc(CC(C)(C)C)nc2-c1cscn1 [compound 510]	–	380	10.3	358	1100	–	–	IC50 [1, 12]: 0.008 µM; IC50 [4, 13]: 0.017 µM
CCC(=O)N[C@@H](Cc1cc(F)cc(-c2nccs2)c1)[C@H](O)CN[C@H]1CC2(CCC2)Oc2ncc(CC(C)(C)C)cc21 [compound 860]	0.004	62	–	69	200	–	–	IC50 (CYP2D6; [10]): 0.3 µM; IC50 [4, 11]: 0.015 µM
CO[C@H](C)C(=O)N[C@@H](Cc1cccc(F)c1)[C@H](O)CN[C@H]1CC2(CCC2)Oc2c(-c3ccncc3)cc(CC(C)(C)C)cc21 [compound 585]	–	–	–	–	50	65.5	120	IC50 [1, 8]: 0.016 µM; IC50 (CYP2D6; 2D6 IC50, CYP2D6 inhibition): 0.75 µM; IC50 [4, 9]: 0.012 µM
CO[C@H](C)C(=O)N[C@@H](Cc1cc(F)cc(-c2nccs2)c1)[C@H](O)CN[C@H]1CC2(CCC2)Oc2ncc(CC(C)(C)F)cc21 [compound 742]	–	–	–	–	700	39.5	42	IC50 [1, 14]: 0.084 µM; IC50 (CYP2D6; [15]): 0.95 µM; IC50 [4, 16]: 0.045 µM
COCC(=O)N[C@@H](Cc1cccc(F)c1)[C@H](O)CN[C@H]1CC2(CCC2)Oc2c(-c3ccnc(OC)c3)cc(CC(C)(C)C)cc21 [compound 654]	–	–	–	–	1000	399	477	IC50 [1, 8]: 0.006 µM; IC50 (CYP2D6; 2D6 IC50, CYP2D6 inhibition): 9.9 µM; IC50 [4, 9]: 0.034 µM
CCOCC(=O)N[C@@H](Cc1ccc2c(c1)OCO2)[C@H](O)CN[C@H]1CC2(CCC2)Oc2ncc(CC(C)(C)C)cc21 [Example 772, N-((1S,2R)-1-(1,3-benzodioxol-5-ylmethyl)-3-(((4′S)-6′-(2,2-dimethylpropyl)-3′,4′-dihydrospiro[cyclobutane-1,2′-pyrano[2,3-b]pyridin]-4′-yl)amino)-2-hydroxypropyl)-2-ethoxyacetamide]	0.021	28	1.1	112	200	–	–	IC50 [4, 7]: 0.042 µM
CO[C@H](C)C(=O)N[C@@H](Cc1cccc(C#N)c1)[C@H](O)CN[C@H]1CC2(CC(F)(F)C2)Oc2ncc(CC(C)(C)C)cc21 [compound 471]	–	569	–	536	1100	–	–	IC50 [1, 17]: 0.004 µM; IC50 (CYP2D6; [10]): 10.3 µM; IC50 [4, 18]: 0.012 µM
CC(=O)C(C)(C)C(=O)N[C@@H](Cc1ccc2c(c1)OCO2)[C@H](O)CN[C@H]1CC2(CCC2)Oc2ncc(CC(C)(C)C)cc21 [compound 457]	–	44	–	90	100	–	–	IC50 [1, 17]: 0.792 µM; IC50 (CYP2D6; [10]): 2.4 µM; IC50 [4, 18]: 0.905 µM
COCC(=O)N[C@@H](Cc1ccc(F)cc1)[C@H](O)CN[C@H]1CC2(CCC2)Oc2ncc(CC(C)(C)C#N)cc21 [compound 496]	–	89	≥ 27	139	4700	–	–	IC50 [1, 12]: 0.024 µM; IC50 [4, 13]: 0.102 µM
CC(=O)N[C@@H](Cc1cc(F)cc(F)c1)[C@H](O)CN[C@H]1CC2(CCC2)Oc2c1cc(CC(C)(C)C)nc2-n1ccnc1 [compound 465]	–	18.5	–	51.5	100	–	–	IC50 [1, 17]: 0.019 µM; IC50 (CYP2D6; [10]): 1 µM; IC50 [4, 18]: 0.032 µM
C#Cc1cc(C[C@H](NC(=O)COC)[C@H](O)CN[C@H]2CC3(CCC3)Oc3ncc(CC(C)C)cc32)ccc1F [compound 780, N-((1S,2R)-1-(3-ethynyl-4-fluorobenzyl)-2-hydroxy-3-(((4′S)-6′-(2-methylpropyl)-3′,4′-dihydrospiro[cyclobutane-1,2′-pyrano[2,3-b]pyridin]-4′-yl)amino)propyl)-2-methoxyacetamide]	0.01	61	–	74	100	–	–	IC50 (CYP2D6): 1.4 µM; IC50 [4, 7]: 0.032 µM
CO[C@H](C)C(=O)N[C@@H](Cc1cccc(-c2nccs2)c1)[C@H](O)CN[C@H]1CC2(CCC2)Oc2ncc(CC(C)C)cc21 [Example 776, (2R)-N-((1S,2R)-2-hydroxy-3-(((4′S)-6′-(2-methylpropyl)-3′,4′-dihydrospiro[cyclobutane-1,2′-pyrano[2,3-b]pyridin]-4′-yl)amino)-1-(3-(1,3-thiazol-2-yl)benzyl)propyl)-2-methoxypropanamide]	0.014	58	0.7	61	200	–	–	IC50 [4, 7]: 0.027 µM
COCC(=O)N[C@@H](Cc1cccc(F)c1)[C@H](O)CN[C@H]1CC2(CCC2)Oc2c1cc(CC(C)C)cc2-n1ccnc1 [compound 520]	–	32	0.9	144	100	–	–	IC50 [1, 12]: 0.018 µM; IC50 [4, 13]: 0.009 µM
CO[C@H](C)C(=O)N[C@@H](Cc1cc(F)cc(-c2nccs2)c1)[C@H](O)CN[C@H]1CC2(CCC2)Oc2ncc(CC(C)C)cc21 [Example 761]	1.62	85	0.7	74	100	–	–	IC50 [4, 7]: 0.375 µM
CO[C@H](C)C(=O)N[C@@H](Cc1ccc2c(c1)OCO2)[C@H](O)CN[C@H]1CC2(CCC2)Oc2c1cc(CC(C)C)nc2-c1ccncc1 [compound 670]	–	–	–	–	≤ 30	40	100	IC50 [1, 14]: 0.06 µM; IC50 (CYP2D6; [15]): 0.8 µM; IC50 [4, 16]: 0.294 µM
COCC(=O)N[C@@H](Cc1ccccc1)[C@H](O)CN[C@H]1CC2(CCC2)Oc2c1cc(CC(C)C)cc2-n1ccnc1 [compound 546]	–	75	3.8	267	100	–	–	IC50 [1, 12]: 0.025 µM; IC50 [4, 13]: 0.033 µM
CC(=O)N[C@@H](Cc1cc(F)cc(F)c1)[C@H](O)CN[C@H]1CC2(CCC2)Oc2c(-c3ccncc3)cc(Cl)cc21 [compound 582]	–	–	–	–	100	97	829	IC50 [1, 8]: 0.024 µM; IC50 (CYP2D6; 2D6 IC50, CYP2D6 inhibition): 0.4 µM; IC50 [4, 9]: 0.057 µM
CC(=O)N[C@@H](Cc1ccc(F)c(-n2ccnc2)c1)[C@H](O)CN[C@H]1CC2(CCC2)Oc2ncc(CC(C)(C)C)cc21 [Example 426, N-((1S,2R)-3-(((4′S)-6′-(2,2-dimethylpropyl)-3′,4′-dihydrospiro[cyclobutane-1,2′-pyrano[2,3-b]pyridin]-4′-yl)amino)-1-(4-fluoro-3-(1H-imidazol-1-yl)benzyl)-2-hydroxypropyl)acetamide]	–	–	–	–	≤ 30	22	14	IC50 [1, 14]: 0.031 µM; IC50 (CYP2D6; [15]): 0.1 µM; IC50 [4, 16]: 0.011 µM
COCC(=O)N[C@@H](Cc1cccc([C@@H]2CCCO2)c1)[C@H](O)CN[C@H]1CC2(CCC2)Oc2ncc(CC(C)(C)C)cc21 [compound 915]	1.96	921	–	590	600	–	–	IC50 (CYP2D6; [10]): 6.8 µM; IC50 [4, 11]: 0.562 µM
CC[C@@H](OC)C(=O)N[C@@H](Cc1ccc(F)cc1)[C@H](O)CN[C@H]1CC2(CCC2)Oc2ncc(CC(C)(C)C)cc21 [compound 566]	–	392	13	590	300	–	–	IC50 [1, 12]: 0.026 µM; IC50 [4, 13]: 0.165 µM
COCC(=O)N[C@@H](Cc1ccc(F)cc1)[C@H](O)CN[C@H]1CC2(CCC2)Oc2c1cc(CC(C)(C)C)nc2C#N [compound 493]	–	95	11.6	221	600	–	–	IC50 [1, 12]: 0.044 µM; IC50 [4, 13]: 0.471 µM
CC(=O)N[C@@H](Cc1ccc(F)c(-c2ccncc2)c1)[C@H](O)CN[C@H]1CC2(CCC2)Oc2ccc(CC(C)(C)C)cc21 [compound 625]	–	–	–	–	160	389	330	IC50 [1, 8]: 0.042 µM; IC50 (CYP2D6; 2D6 IC50, CYP2D6 inhibition): 0.2 µM; IC50 [4, 9]: 0.057 µM
